Test results as given in patent US6843854B2, “Method and apparatus for separating a component from a mixture” (Purdue Research Foundation, priority 2002, dated 2005).
Values after ≈ are worked out from the molar mass of the structure shown.

Experiments:
physchem = experiment: physchem
Protocol: The solubility data for each system tested in Table DD, was determined by the following method. First, a measured amount of dry crude mixture (39.3% clari, 37.5% 6,11, and 23.2% other impurities) was added to a measured volume of the mobile phase solvent being used for the particular test case and the mixture was stirred. Heat was added while the mixture was being stirred because dissolution of Clarithromycin and 6,11 is very slow at room temperature. The solution temperature was allowed to approach the boiling temperature of the solvent. The solution was held constant at that temperature until no more solid material was present in the mixture (complete dissolution). […]
In addition to the assembly of the physical system 500, the maximum feed concentration allowed by solubility must be known to optimize the operating parameters with the non-linear, non-equilibrium equations. The solubility was determined in the manner described earlier. Next, the optimal feed concentration was determined and was created by diluting the maximum feed concentration solution. […]
The feed solutions for Experiment #1 were prepared by mixing 5.6 g dry crude (39.3% clari, 37.5% 6,11, 23.2% other) Clarithromycin and 6,11 with 1000 ml of 80% methanol. […] Finally, this solution was filtered to remove any remaining solids and the volume measured to insure there was not significant evaporation. […]

[1] = Solubility in Ethanol/water solutions (excess solid stirred four hours, filtered, HPLC)
Protocol: The relative solubilities of Clarithromycin and 6,11 at various percentages of Ethanol in the Ethanol/water solution provide a solubility curve for both Clarithromycin and 6,11. The Ethanol used is 200 proof and is available from McCormick Distilling Co. in Weston, Mass. The water used is distilled deionized water obtained from a MILLI-Q™ system available from Millipore located in Bedford, Mass. The solubilities of Clarithromycin and 6,11 are determined by adding an excess amount of the component being tested to the tested Ethanol/water solution and stirring the mixture for four hours at approximately room temperature (24 C.). The resultant solution is then filtered and assayed for concentration using HPLC (high performance liquid chromatography).
Clarithromycin solubility curve 90 was found using pure Clarithromycin. 6,11 solubility curve 92 was found using a binary mixture of Clarithromycin and 6,11.

solubility limit (physchem) [µg/mL]	solubility ([1]; Ethanol percentages below about 60%)	Ethanol content of the Ethanol/water solution at maximum solubility ([1]; approximately room temperature (24 C.), FIG. 8)	solubility ([1]; various Ethanol/water solutions, approximately room temperature (24 C.), FIG. 8)	solubility (physchem; 24 °C, organic solvent or mixture, thermodynamic from solid, solubility limit) [µg/mL]	SMILES
3030 (≈ 3.98 mM)					CC[C@H]1OC(=O)[C@H](C)[C@@H](O[C@H]2C[C@@](C)(OC)[C@@H](O)[C@H](C)O2)[C@H](C)[C@@H](O[C@@H]2O[C@H](C)C[C@H](N(C)C)[C@H]2O)[C@](C)(OC)C[C@@H](C)C(=O)[C@H](C)[C@@H](OC)[C@]1(C)O [6,11, 6,11-O-methyl erythromycin A]
	very small	about 80 % Ethanol	higher degree of solubility than 6,11	2460 (≈ 3.29 mM)	CC[C@H]1OC(=O)[C@H](C)[C@@H](O[C@H]2C[C@@](C)(OC)[C@@H](O)[C@H](C)O2)[C@H](C)[C@@H](O[C@@H]2O[C@H](C)C[C@H](N(C)C)[C@H]2O)[C@](C)(OC)C[C@@H](C)C(=O)[C@H](C)[C@@H](O)[C@]1(C)O [Clarithromycin, 6-O-methyl erythromycin A]
